Measurements published in patent US12655156B2, “Oxadiazolopyrazines and oxadiazolopyridines useful as mitochondrial uncouplers” (Virginia Tech Intellectual Properties, Inc., priority 2018, dated 2026).

The compounds below were run on whole cells (NMuLi, C2C12, and L6 cells, isolated cardiomyocytes, human primary fibroblasts) (assay: Oxygen consumption rate (OCR) in whole cells, Seahorse XF-24 Flux Analyzer). Details: increase in OCR; binned EC50 values.
Type: cell-based
Description: Biological activities of the compounds synthesized is determined by determining increase in oxygen consumption rate (OCR).
Oxygen consumption rate (OCR) in whole cells is measured in general accordance with the method of Kenwood B M et al. (Mol. Met. (2014) 3:114-123).
OCR is measured using a Seahorse XF-24 Flux Analyzer (Seahorse Biosciences, North Billerica, MA). NMuLi, C2C12, and L6 cells are seeded in a Seahorse 24-well tissue culture plate at a density of 3.5×10^4 cells/well, isolated cardiomyocytes at a density of 4×10^4 cells/well, and human primary fibroblasts at a density of 1.1×10^4 cells/well. The cells are then allowed to adhere for 24 h. Prior to the assay, the media is changed to unbuffered DMEM containing pyruvate and glutamine (Gibco #12800-017, pH=7.4 at 37° C.) and the cells are equilibrated for 30 mins at 37°° C. Compounds are injected during the assay and OCR is measured using 2 min measurement periods.
2-3 wells are used per condition and averaged over three plates (n=6-9). Statistical significance is determined by two-way ANOVA with Bonferroni's posttest.
Activities are reported as binned EC50 values: A=5 μM or less; B=>5 to 20 μM; C=over 20 μM; NA=not active.

| SMILES | EC50 [µM] |
| --- | --- |
| Oc1nc2nonc2nc1Nc1ccc(C(O)(C(F)(F)F)C(F)(F)F)cc1 [1-26, 6-((4-(1,1,1,3,3,3-Hexafluoro-2-hydroxypropan-2-yl)phenyl)amino)-[1,2,5]oxadiazolo[3,4-b]pyrazin-5-ol] | > 20 |
| Oc1nc2nonc2nc1Nc1ccc(OC(F)F)cc1 [1-27, 6-((4-(Difluoromethoxy)phenyl)amino)-[1,2,5]oxadiazolo[3,4-b]pyrazin-5-ol] | > 20 |
| Oc1nc2nonc2nc1Nc1ccc(OC(F)(F)C(F)F)cc1 [1-28, 6-((4-(1,1,2,2-Tetrafluoroethoxy)phenyl)amino)-[1,2,5]oxadiazolo[3,4-b]pyrazin-5-ol] | 5 to 20 |
| Oc1nc2nonc2nc1Nc1ccc(OC(F)(F)Cl)cc1 [1-29, 6-((4-(Chlorodifluoromethoxy)phenyl)amino)-[1,2,5]oxadiazolo[3,4-b]pyrazin-5-ol] | ≤ 5 |
| Oc1nc2nonc2nc1Nc1ccc(S(F)(F)(F)(F)F)cc1 [1-30, 6-((4-(Pentafluoro-16-sulfaneyl)phenyl)amino)-[1,2,5]oxadiazolo[3,4-b]pyrazin-5-ol] | ≤ 5 |
| Oc1nc2nonc2nc1Nc1cccc(S(F)(F)(F)(F)F)c1 [1-31, 6-((3-(Pentafluoro-16-sulfaneyl)phenyl)amino)-[1,2,5]oxadiazolo[3,4-b]pyrazin-5-ol] | ≤ 5 |
| Cc1cc(OC(F)(F)F)ccc1Nc1nc2nonc2nc1O [1-32, 6-((2-Methyl-4-(trifluoromethoxy)phenyl)amino)-[1,2,5]oxadiazolo[3,4-b]pyrazin-5-ol] | ≤ 5 |
| Oc1nc2nonc2nc1Nc1ccc(F)c(Br)c1 [1-33, 6-((3-Bromo-4-fluorophenyl)amino)-[1,2,5]oxadiazolo[3,4-b]pyrazin-5-ol] | 5 to 20 |
| Oc1nc2nonc2nc1Nc1cc(C(F)(F)F)cc(C(F)(F)F)c1 [1-34, 6-((3,5-Bis(trifluoromethyl)phenyl)amino)-[1,2,5]oxadiazolo[3,4-b]pyrazin-5-ol] | 5 to 20 |
| Oc1nc2nonc2nc1Nc1ccc(I)cc1OC(F)(F)F [1-35, 6-((4-Iodo-2-(trifluoromethoxy)phenyl)amino)-[1,2,5]oxadiazolo[3,4-b]pyrazin-5-ol] | ≤ 5 |
| Oc1nc2nonc2nc1Nc1ccc(OC(F)(F)F)cc1F [1-36, 6-((2-Fluoro-4-(trifluoromethoxy)phenyl)amino)-[1,2,5]oxadiazolo[3,4-b]pyrazin-5-ol] | ≤ 5 |
| Oc1nc2nonc2nc1Nc1cccc(C(F)(F)F)c1F [1-37, 6-((2-Fluoro-3-(trifluoromethyl)phenyl)amino)-[1,2,5]oxadiazolo[3,4-b]pyrazin-5-ol] | ≤ 5 |
| Oc1nc2nonc2nc1Nc1ccc(OC(F)(F)F)cc1Br [1-38, 6-((2-Bromo-4-(trifluoromethoxy)phenyl)amino)-[1,2,5]oxadiazolo[3,4-b]pyrazin-5-ol] | ≤ 5 |
| Oc1nc2nonc2nc1Nc1ccc(OC(F)(F)F)c(Br)c1 [1-39, 6-((3-Bromo-4-(trifluoromethoxy)phenyl)amino)-[1,2,5]oxadiazolo[3,4-b]pyrazin-5-ol] | ≤ 5 |
| O=[N+]([O-])c1cc(Nc2nc3nonc3nc2O)ccc1OC(F)(F)F [1-40, 6-((3-Nitro-4-(trifluoromethoxy)phenyl)amino)-[1,2,5]oxadiazolo[3,4-b]pyrazin-5-ol] | > 20 |
| Oc1nc2nonc2nc1Nc1ccc(OC(F)(F)F)cc1Cl [1-41, 6-((2-Chloro-4-(trifluoromethoxy)phenyl)amino)-[1,2,5]oxadiazolo[3,4-b]pyrazin-5-ol] | ≤ 5 |
| Oc1nc2nonc2nc1Nc1ccc(C(F)(F)F)c(F)c1 [1-42, 6-((3-Fluoro-4-(trifluoromethyl)phenyl)amino)-[1,2,5]oxadiazolo[3,4-b]pyrazin-5-ol] | 5 to 20 |
| Oc1nc2nonc2nc1Nc1ccc(Br)cc1F [1-43, 6-((4-Bromo-2-fluorophenyl)amino)-[1,2,5]oxadiazolo[3,4-b]pyrazin-5-ol] | ≤ 5 |
| Oc1nc2nonc2nc1Nc1ccc2ccccc2c1 [1-44, 6-(Naphthalen-2-ylamino)-[1,2,5]oxadiazolo[3,4-b]pyrazin-5-ol] | ≤ 5 |
| CCc1cccc(Nc2nc3nonc3nc2O)c1 [1-46, 6-((3-Ethylphenyl)amino)-[1,2,5]oxadiazolo[3,4-b]pyrazin-5-ol] | 5 to 20 |
| CC(=O)c1ccc(Nc2nc3nonc3nc2O)cc1 [1-47, 1-(4-((6-Hydroxy-[1,2,5]oxadiazolo[3,4-b]pyrazin-5-yl)amino)phenyl)ethan-1-one] | > 20 |
| Oc1nc2nonc2nc1Nc1cccc2ccccc12 [1-50, 6-(Naphthalen-1-ylamino)-[1,2,5]oxadiazolo[3,4-b]pyrazin-5-ol] | 5 to 20 |
| CC(C)(C)c1ccc(Nc2nc3nonc3nc2O)cc1 [1-51, 6-((4-(tert-Butyl)phenyl)amino)-[1,2,5]oxadiazolo[3,4-b]pyrazin-5-ol] | ≤ 5 |
| Oc1nc2nonc2nc1Nc1ccccc1 [1-52, 6-(Phenylamino)-[1,2,5]oxadiazolo[3,4-b]pyrazin-5-ol] | > 20 |

| SMILES | EC50 [µM] |
| --- | --- |
| CC(C)(C)c1cccc(Nc2nc3nonc3nc2O)c1 [1-53, 6-((3-(tert-Butyl)phenyl)amino)-[1,2,5]oxadiazolo[3,4-b]pyrazin-5-ol] | ≤ 5 |
| CCCCc1ccc(Nc2nc3nonc3nc2O)cc1 [1-54, 6-((4-Butylphenyl)amino)-[1,2,5]oxadiazolo[3,4-b]pyrazin-5-ol] | ≤ 5 |
| CCCCc1ccc(Nc2nc3nonc3nc2O)c(F)c1 [1-55, 6-((4-Butyl-2-fluorophenyl)amino)-[1,2,5]oxadiazolo[3,4-b]pyrazin-5-ol] | ≤ 5 |
| Cc1cccc(C)c1Nc1nc2nonc2nc1O [1-56, 6-((2,6-Dimethylphenyl)amino)-[1,2,5]oxadiazolo[3,4-b]pyrazin-5-ol] | ≤ 5 |
| Cc1ccc(Nc2nc3nonc3nc2O)cc1 [1-58, 6-(p-Tolylamino)-[1,2,5]oxadiazolo[3,4-b]pyrazin-5-ol] | > 20 |
| Cc1ccc(Nc2nc3nonc3nc2O)cc1C [1-60, 6-((3,4-Dimethylphenyl)amino)-[1,2,5]oxadiazolo[3,4-b]pyrazin-5-ol] | 5 to 20 |
| CCc1ccc(Nc2nc3nonc3nc2O)cc1 [1-61, 6-((4-Ethylphenyl)amino)-[1,2,5]oxadiazolo[3,4-b]pyrazin-5-ol] | 5 to 20 |
| CCCC#Cc1ccc(Nc2nc3nonc3nc2O)c(F)c1 [1-62, 6-((2-Fluoro-4-(pent-1-yn-1-yl)phenyl)amino)-[1,2,5]oxadiazolo[3,4-b]pyrazin-5-ol] | ≤ 5 |
| CCCCC#Cc1ccc(Nc2nc3nonc3nc2O)c(F)c1 [1-63, 6-((2-Fluoro-4-(hex-1-yn-1-yl)phenyl)amino)-[1,2,5]oxadiazolo[3,4-b]pyrazin-5-ol] | ≤ 5 |
| CCCC#Cc1ccc(Nc2nc3nonc3nc2O)c(OC(F)(F)F)c1 [1-64, 6-((4-(Pent-1-yn-1-yl)-2-(trifluoromethoxy)phenyl)amino)-[1,2,5]oxadiazolo[3,4-b]pyrazin-5-ol] | ≤ 5 |
| CCCCC#Cc1ccc(Nc2nc3nonc3nc2O)c(OC(F)(F)F)c1 [1-65, 6-((4-(Hex-1-yn-1-yl)-2-(trifluoromethoxy)phenyl)amino)-[1,2,5]oxadiazolo[3,4-b]pyrazin-5-ol] | 5 to 20 |
| CCCCCc1ccc(Nc2nc3nonc3nc2O)c(F)c1 [1-66, 6-((2-Fluoro-4-pentylphenyl)amino)-[1,2,5]oxadiazolo[3,4-b]pyrazin-5-ol] | ≤ 5 |
| CCCCCCc1ccc(Nc2nc3nonc3nc2O)c(F)c1 [1-67, 6-((2-Fluoro-4-hexylphenyl)amino)-[1,2,5]oxadiazolo[3,4-b]pyrazin-5-ol] | ≤ 5 |
| CCc1ccc(Nc2nc3nonc3nc2O)c(F)c1 [1-68, 6-((4-ethyl-2-fluorophenyl)amino)-[1,2,5]oxadiazolo[3,4-b]pyrazin-5-ol] | 5 to 20 |
| CCCCCc1ccc(Nc2nc3nonc3nc2O)c(OC(F)(F)F)c1 [1-69, 6-((4-Pentyl-2-(trifluoromethoxy)phenyl)amino)-[1,2,5]oxadiazolo[3,4-b]pyrazin-5-ol] | ≤ 5 |
| CCCCCCc1ccc(Nc2nc3nonc3nc2O)c(OC(F)(F)F)c1 [1-70, 6-((4-hexyl-2-(trifluoromethoxy)phenyl)amino)-[1,2,5]oxadiazolo[3,4-b]pyrazin-5-ol] | 5 to 20 |
| CCCCCc1ccc(Nc2nc3nonc3nc2O)cc1 [1-71, 6-((4-pentylphenyl)amino)-[1,2,5]oxadiazolo[3,4-b]pyrazin-5-ol] | > 20 |
| CCCCCCc1ccc(Nc2nc3nonc3nc2O)cc1 [1-72, 6-((4-hexylphenyl)amino)-[1,2,5]oxadiazolo[3,4-b]pyrazin-5-ol] | 5 to 20 |
| CCCCCCCCNc1nc2nonc2nc1O [1-74, 6-(octylamino)-[1,2,5]oxadiazolo[3,4-b]pyrazin-5-ol] | ≤ 5 |
| Oc1nc2nonc2nc1NCc1ccc(Br)cc1 [1-77, 6-((4-bromobenzyl)amino)-[1,2,5]oxadiazolo[3,4-b]pyrazin-5-ol] | > 20 |
| Cc1ccc(CNc2nc3nonc3nc2O)cc1 [1-78, 6-((4-methylbenzyl)amino)-[1,2,5]oxadiazolo[3,4-b]pyrazin-5-ol] | > 20 |
| Oc1nc2nonc2nc1NC(c1ccccc1)c1ccccc1 [1-79, 6-(benzhydrylamino)-[1,2,5]oxadiazolo[3,4-b]pyrazin-5-ol] | > 20 |
| Oc1nc2nonc2nc1NCc1ccc(OC(F)(F)F)cc1 [1-80, 6-((4-(trifluoromethoxy)benzyl)amino)-[1,2,5]oxadiazolo[3,4-b]pyrazin-5-ol] | > 20 |
